Source: patent US9034855B2, “Substituted phenylacetate and phenylpropane amides and use thereof” (Bayer Intellectual Property GmbH, priority 2010, dated 2015)
pIC50: −log10 of the molar value. Values after ≈ are worked out from the molar mass of the structure shown.

Tests used:
[1] = Determination of the solubility; format: physicochemical; conditions: aqueous buffer, kinetic from dmso stock; PBS buffer pH 6.5, 20° C., 24 hours shaking, from DMSO solution
Description: B-6. Determination of the Solubility
Reagents Required: • PBS buffer pH 6.5: 90.00 g of NaCl p.a. (for example from Merck, Art. No. 1.06404.1000), 13.61 g of KH2PO4 p.a. (for example from Merck, Art. No. 1.04873.1000) and 83.35 g of 1N aqueous sodium hydroxide solution (for example from Bernd Kraft GmbH, Art. No. 01030.4000) are weighed into a 1 liter measuring flask, the flask is filled with distilled water to 1 liter and the mixture is stirred for 1 hour. Using 1N hydrochloric acid (for example from Merck, Art. No. 1.09057.1000) the pH is then adjusted to 6.5. • PEG/water solution (30:70 v/v): 30 ml of polyethylene glycol 400 (for example from Merck, Art. No. 8.17003.1000) and 70 ml of distilled water are homogenized in a 100 ml measuring flask. • PEG/PBS buffer pH 6.5 (80:20 v/v): 80 ml of polyethylene glycol 400 (for example from Merck, Art. No. 8.17003.1000) and 20 ml of PBS buffer pH 6.5 are homogenized in a 100 ml measuring flask. • Dimethyl sulphoxide (for example from Baker, Art. No. 7157.2500) • Distilled water.
Preparation of the Starting Solution (Original Solution):
At least 4 mg of the test substance are weighed accurately into a wide-necked 10 mm screw V vial (from Glastechnik Gräfenroda GmbH, Art. No. 8004-WM-H/V150 with fitting screw cap and septum, in a pipetting robot DMSO is added to a concentration of 50 mg/ml and the mixture is shaken for 10 minutes.
Preparation of the Calibration Solutions:
Preparation of the starting solution for calibration solutions (stock solution): With the aid of a pipetting robot, 10 μl of the original solution are transferred into a microtiter plate and made up with DMSO to a concentration of 600 μg/ml. The sample is shaken until everything has gone into solution.
Calibration solution 1 (20 μg/ml): 1000 μl of DMSO are added to 34.4 μl of the stock solution, and the mixture is homogenized.
Calibration solution 2 (2.5 μg/ml): 700 μl of DMSO are added to 100 μl of calibration solution 1, and the mixture is homogenized.
Preparation of the Sample Solutions:
Sample solution for solubilities of up to 5 g/liter in PBS buffer pH 6.5: 10 μl of the original solution are transferred into a microtiter plate, and 1000 μl of PBS buffer pH 6.5 are added.
The sample solutions prepared in this manner are shaken at 1400 rpm in a temperature-adjustable shaker (for example Eppendorf Thermomixer comfort Art. No. 5355 000.011 with interchangeable block Art. No. 5362.000.019) at 20° C. for 24 hours. In each case 180 μl are taken from these solutions and transferred into Beckman Polyallomer Centrifuge Tubes (Art. No. 343621). These solutions are centrifuged at about 223 000×g for one hour (for example Beckman Optima L-90K Ultracentrifuge with Type 42.2 Ti Rotor at 42 000 rpm). From each of the sample solutions, 100 μl of the supernatant are removed and diluted 1:5 and 1:100 with DMSO. From each dilution, a sample is transferred into a vessel suitable for HPLC analysis.
The samples are analysed by RP-HPLC. Quantification is carried out using a two-point calibration curve of the test compound in DMSO. The solubility is expressed in mg/liter. Analysis sequence: 1) calibration solution […]; 2) calibration solution 20 μg/ml; 3) sample solution 1:5; 4) sample solution 1:100.
Agilent 1100 with DAD (G1315A), quat. pump (G1311A), autosampler CTC HTS PAL, degasser (G1322A) and column thermostat (G1316A); column: Phenomenex Gemini C18, 50 mm×2 mm, 5μ; temperature: 40° C.; mobile phase A: water/phosphoric acid pH 2; mobile phase B: acetonitrile; flow rate: 0.7 ml/min; gradient: 0-0.5 min 85% A, 15% B; ramp: 0.5-3 min 10% A, 90% B; 3-3.5 min 10% A, 90% B; ramp: 3.5-4 min 85% A, 15% B; 4-5 min 85% A, 15% B. […]

human V1a receptor = target: T1, human V1a receptor (Homo sapiens, UniProt P37288); test: Cellular in vitro assay for determining the vasopressin receptor activity (aequorin luminescence, recombinant CHO cells), human V1a; format: cell-based; conditions: CHO cells expressing aequorin, transfected with human V1a receptor; agonist [Arg8]-vasopressin; read-out: IC50 hV1a
T1 construct: expressed in transfected cells; host or cells: CHO K1 (ATCC), constitutively expressing modified aequorin
From the text: (§1) B-1. Cellular In Vitro Assay for Determining the Vasopressin Receptor Activity
(§2) The identification of agonists and antagonists of the V1a and V2 vasopressin receptors from humans and rats and also the quantification of the activity of the substances described here takes place using recombinant cell lines. These cells derive originally from a hamster's ovary epithelial cell (Chinese Hamster Ovary, CHO K1, ATCC: American Type Culture Collection, Manassas, Va. 20108, USA). The test cell lines constitutively express a modified form of the calcium-sensitive photoprotein aequorin, which, after reconstitution with the cofactor coelenterazine, emits light when there are increases in the free calcium concentration (Rizzuto R., Simpson A. W., Brini M., Pozzan T.; Nature 358 (1992) 325-327). In addition, the cells are stably transfected with the human or rat V1a or V2 receptors. In the case of the Gs-coupling V2 receptors, the cells are stably transfected with a further gene, which codes for the promiscuous Gα16 protein (Amatruda T. T., Steele D. A., Slepak V. Z., Simon M A., Proc. Na. Acad. Sci. USA 88 (1991), 5587-5591), either independently or as a fusion gene. The resulting vasopressin receptor test cells react to stimulation of the recombinantly expressed vasopressin receptors by intracellular release of calcium ions, which can be quantified by the resulting aequorin luminescence using a suitable luminometer (Milligan G., Marshall F., Rees S., Trends in Pharmaco. Sci. 17 (1996) 235-237).
(§3) On the day before the assay, the cells are plated out in culture medium (DMEM, 10% FCS, 2 mM glutamine, 10 mM HEPES) in 384-well microtiter plates and kept in a cell incubator (96% atmospheric humidity, 5% v/v carbon dioxide, 37° C.). On the day of the assay, the culture medium is replaced by a Tyrode solution (140 mM sodium chloride, 5 mM potassium chloride, 1 mM magnesium chloride, 2 mM calcium chloride, 20 mM glucose, 20 mM HEPES), which additionally contains the cofactor coelenterazine (50 μM), and the microtiter plate is then incubated for a further 3-4 hours. The test substances in various concentrations are placed for 10 to 20 minutes in the wells of the microtiter plate before the agonist [Arg8]-vasopressin is added, and the resulting light signal is measured immediately in the luminometer. The IC50 values are calculated using the GraphPad PRISM computer program (Version 3.02).
(§4) Table A below lists representative IC50 values for the compounds according to the invention transfected with the human V1a or V2 receptor: […]

human V2 receptor = target: T2, human V2 receptor (Homo sapiens, UniProt P30518); test: Cellular in vitro assay for determining the vasopressin receptor activity (aequorin luminescence, recombinant CHO cells), human V2; format: cell-based; conditions: CHO cells expressing aequorin and Gα16, transfected with human V2 receptor; agonist [Arg8]-vasopressin; read-out: IC50 hV2
T2 construct: expressed in transfected cells; host or cells: CHO K1 (ATCC), constitutively expressing modified aequorin, co-transfected with promiscuous G-alpha-16
From the text: as §1, §2, §3, §4

T2 sequence (P30518 whole entry): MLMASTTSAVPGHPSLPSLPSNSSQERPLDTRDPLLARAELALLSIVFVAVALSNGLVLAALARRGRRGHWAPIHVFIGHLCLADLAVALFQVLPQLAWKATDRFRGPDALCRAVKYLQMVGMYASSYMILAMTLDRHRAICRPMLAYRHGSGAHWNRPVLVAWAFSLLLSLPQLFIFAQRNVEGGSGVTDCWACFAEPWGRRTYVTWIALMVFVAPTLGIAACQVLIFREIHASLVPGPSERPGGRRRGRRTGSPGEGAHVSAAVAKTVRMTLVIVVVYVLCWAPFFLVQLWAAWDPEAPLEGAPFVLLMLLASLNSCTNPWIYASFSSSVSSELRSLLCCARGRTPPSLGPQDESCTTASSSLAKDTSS
T1 sequence (P37288 whole entry): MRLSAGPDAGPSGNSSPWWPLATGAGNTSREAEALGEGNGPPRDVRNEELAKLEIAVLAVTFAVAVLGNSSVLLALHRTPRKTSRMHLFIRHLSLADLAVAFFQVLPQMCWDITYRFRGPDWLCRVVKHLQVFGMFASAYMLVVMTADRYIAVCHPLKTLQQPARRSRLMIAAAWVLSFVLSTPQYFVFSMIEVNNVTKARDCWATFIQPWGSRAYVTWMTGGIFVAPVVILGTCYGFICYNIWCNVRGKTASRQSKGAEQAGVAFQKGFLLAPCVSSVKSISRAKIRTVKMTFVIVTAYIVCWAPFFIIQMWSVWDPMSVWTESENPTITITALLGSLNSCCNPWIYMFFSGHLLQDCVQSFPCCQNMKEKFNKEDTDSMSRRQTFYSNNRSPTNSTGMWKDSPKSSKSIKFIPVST

For `O=C(Cn1nc(-c2ccc(Cl)cc2)n(C2CC2)c1=O)NC(C(=O)NC1(C(=O)O)CC1)c1cccc(C(F)(F)F)c1` (racemic) [Example 6, 1-({({[3-(4-Chlorophenyl)-4-cyclopropyl-5-oxo-4,5-dihydro-1H-1,2,4-triazol-1-yl]acetyl}-amino)[3-(trifluoromethyl)phenyl}acetyl]amino)cyclopropanecarboxylic acid], which solubility at 24 h [1] is on record?
The solubility at 24 h was 340 µg/mL (≈ 588 µM).

And the pIC50 (human V1a receptor)?
Its pIC50 is 7.33.

What about the pIC50 (human V2 receptor) of the same molecule?
The pIC50 was 6.49.

For `O=C(Cn1nc(-c2ccc(Cl)cc2)n(C[C@H](O)C(F)(F)F)c1=O)NC(C(=O)NCCO)c1cccc(OC(F)(F)F)c1` (stereo partly drawn) [Example 52, 2-[({3-(4-Chlorophenyl)-5-oxo-4-[(2S)-3,3,3-trifluoro-2-hydroxypropyl]-4,5-dihydro-1H-1,2,4-triazol-1-yl}acetyl)amino]-N-(2-hydroxyethyl)-2-[3-(trifluoromethoxy)phenyl]acetamide], which solubility at 24 h [1] is on record?
Its solubility at 24 h is 100 µg/mL (≈ 160 µM).

And the pIC50 (human V1a receptor)?
The pIC50 was 8.01.

What about the pIC50 (human V2 receptor) of the same molecule?
Its pIC50 is 7.38.

With `CC(C)(NC(=O)[C@](C)(NC(=O)Cn1nc(-c2ccc(Cl)cc2)n(C[C@H](O)C(F)(F)F)c1=O)c1cccc(C(F)(F)F)c1)C(=O)O` [Example 21, N-{(2R)-2-[({3-(4-Chlorophenyl)-5-oxo-4-[(2S)-3,3,3-trifluoro-2-hydroxypropyl]-4,5-dihydro-1H-1,2,4-triazol-1-yl}acetyl)amino]-2-[3-(trifluoromethyl)phenyl]propanoyl}-2-methylalanine] as the molecule, how does the solubility at 24 h [1] read?
The solubility at 24 h was 360 µg/mL (≈ 541 µM).

And the pIC50 (human V1a receptor)?
The pIC50 was 9.00.

What about the pIC50 (human V2 receptor) of the same molecule?
The pIC50 was 9.10.

What does the source list for `O=C(C[C@H](NC(=O)Cn1nc(-c2ccc(Cl)cc2)n(C[C@H](O)C(F)(F)F)c1=O)c1cccc(C(F)(F)F)c1)NCCO` [Example 54, (3S)-3-[({3-(4-Chlorophenyl)-5-oxo-4-[(2S)-3,3,3-trifluoro-2-hydroxypropyl]-4,5-dihydro-1H-1,2,4-triazol-1-yl}acetyl)amino]-N-(2-hydroxyethyl)-3-[3-(trifluoromethyl)phenyl]propanamide]?
solubility at 24 h [1]: 400 µg/mL (≈ 641 µM); pIC50 (human V1a receptor): 8.42; pIC50 (human V2 receptor): 8.59

With `COCCn1c(-c2ccc(Cl)s2)nn(CC(=O)NC(C(=O)NC(C)(C)C(=O)O)c2cccc(C(F)(F)F)c2)c1=O` (racemic) [Example 10, N-{({[3-(5-Chloro-2-thienyl)-4-(2-methoxyethyl)-5-oxo-4,5-dihydro-1H-1,2,4-triazol-1-yl]acetyl}-amino) [3-(trifluoromethyl)phenyl}acetyl]-2-methylalanine] as the molecule, how does the solubility at 24 h [1] read?
Its solubility at 24 h is 360 µg/mL (≈ 596 µM).

What about the pIC50 (human V1a receptor) of the same molecule?
The pIC50 was 6.82.

And the pIC50 (human V2 receptor)?
Its pIC50 is 6.02.

With `CC(C)(NC(=O)C(NC(=O)Cn1nc(-c2ccc(Cl)cc2)n(/C=C/C(F)(F)F)c1=O)c1ccccc1C(F)(F)F)C(N)=O` (racemic) [Example 31, N^2-{[({3-(4-Chlorophenyl)-5-oxo-4-[(1E)-3,3,3-trifluoroprop-1-en-1-yl]-4,5-dihydro-1H-1,2,4-triazol-1-yl}acetyl)amino][2-(trifluoromethyl)phenyl]acetyl}-2-methylalaninamide] as the molecule, how does the solubility at 24 h [1] read?
Its solubility at 24 h is 110 µg/mL (≈ 174 µM).

And the pIC50 (human V1a receptor)?
Its pIC50 is 8.11.

What about the pIC50 (human V2 receptor) of the same molecule?
Its pIC50 is 5.93.
